Test systems include A549; SNB-78; MOLT-4; DMS-114; DLD-1; U-251; SN12C; UACC-62; DMS-273; NCI-H226; HL-60; HOP-18; SR; SF-268; KM-20L2; NCI-H522.
Common to all, as to test: inhibition of tumour cell growth, NCI panel, 48 h

Experimental findings from ChEMBL document CHEMBL1201862, “PubChem BioAssay data set” (2004) are described below.

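These data come from cells grown in 96-well plates and exposed to compound for 48 hours at five concentrations. The concentration for 50% growth inhibition is given as GI50.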 Active and inactive are the calls of the source. Rule as the data show it: active = GI50 up to about 1.1 µM and inactive = higher.

With `CC(C)CCC1CC2C(=O)N(c3ccccc3)C(=O)C2c2[nH]c3ccccc3c21` (centres undefined), the GI50 with A549 was 0.412 µM (active); with SNB-78 it was 3.45 µM (inactive); with MOLT-4 it was 2.77 µM (inactive); with DMS-114, 0.6 µM (active); in the assay with DLD-1, 2.18 µM (inactive); in the assay on U-251, 0.455 µM (active). Moreover, the GI50 was 2.67 µM (inactive) in the assay on SN12C; 6.21 µM (inactive) in the assay on UACC-62; 0.281 µM (active) with DMS-273; 2.66 µM (inactive) in the assay with NCI-H226; 1.11 µM (active) in the assay on HL-60; 7.06 µM (inactive) in the assay with HOP-18. For the same molecule, the GI50 in the assay on SR was 3.4 µM (inactive); in the assay on SF-268, 2.05 µM (inactive).
Regarding `CCC1CN2CCC1CC2` (centres undefined), the GI50 in the assay with A549, in the assay with SNB-78, in the assay on MOLT-4, in the assay on DMS-114, with KM-20L2 and with DLD-1 was > 100 µM (inactive) throughout. For the same molecule, the GI50 with U-251, with SN12C, in the assay on UACC-62, in the assay on DMS-273, in the assay on NCI-H226 and in the assay with HL-60 was > 100 µM (inactive) in each case. For the same molecule, the GI50 in the assay with HOP-18, in the assay on NCI-H522 and in the assay on SF-268 was > 100 µM (inactive) in each case.
Regarding `O=C(O)CCCCCCCCC(=O)O` [SEBACIC ACID], the GI50 was 108 µM (inactive) in the assay on A549; > 500 µM (inactive) with SNB-78; > 500 µM (inactive) in the assay with MOLT-4; 50 µM (inactive) in the assay on DMS-114; > 50 µM (inactive) with KM-20L2; 108 µM (inactive) in the assay with DLD-1. The GI50 in the assay on U-251 is > 79.3 µM (inactive); in the assay with SN12C, > 321 µM (inactive); in the assay on UACC-62, > 79.3 µM (inactive); in the assay on DMS-273, 50 µM (inactive); in the assay on NCI-H226 it was > 500 µM (inactive); in the assay with HL-60, 316 µM (inactive). The GI50 was 387 µM (inactive) with HOP-18, > 500 µM (inactive) with NCI-H522 and > 500 µM (inactive) with SF-268.
For `C[C@H]1[C@@H]2C[C@@H]3O[C@@]34[C@H]3CCC5Cc6nc7c(nc6C[C@@]5(C)[C@]3(O)CC(=O)[C@@]24CO[C@]12OC(C)(C)C[C@@H]2O)CC1CC[C@@H]2C3=C[C@H]4O[C@@]5(OC(C)(CO)C[C@@H]5O)[C@H](C)[C@@]4(O)[C@]3(C)[C@@H](O)CC2[C@]1(C)C7` (some centres undefined), the GI50 is 0.0168 µM (active) in the assay with A549; 0.00792 µM (active) in the assay with SNB-78; 0.0119 µM (active) in the assay on DMS-114; 0.0378 µM (active) in the assay on KM-20L2; 0.191 µM (active) with DLD-1; 0.00511 µM (active) in the assay with U-251. The GI50 was > 3.52 µM (inactive) with SN12C; 0.0175 µM (active) with UACC-62; 0.00345 µM (active) in the assay with DMS-273; 0.0184 µM (active) in the assay on NCI-H226; 0.00361 µM (active) in the assay with HL-60; > 3.52 µM (inactive) in the assay with HOP-18. For the same molecule, the GI50 in the assay with NCI-H522 was 0.0955 µM (active); in the assay with SF-268, 0.0181 µM (active).
With `COC(=O)[C@@H]1c2cc3c(c(O)c2[C@@H](OC)C[C@@]1(C)O)C(=O)c1c(O)cc2c(c1C3=O)OC1O[C@@]2(C)[C@H](O)[C@@H](N(C)C)[C@@H]1O`, the GI50 with A549 was 0.435 µM (active); in the assay with SNB-78, 0.552 µM (active); with MOLT-4, 0.143 µM (active); in the assay with DMS-114, 0.217 µM (active); with KM-20L2, 0.175 µM (active); in the assay on DLD-1, 1.86 µM (inactive). For the same molecule, the GI50 in the assay on U-251 is 0.307 µM (active); with SN12C, 0.254 µM (active); with UACC-62, 0.223 µM (active); with DMS-273 it was 0.118 µM (active); with NCI-H226 it was 0.301 µM (active); in the assay on HL-60, 0.142 µM (active). For the same molecule, the GI50 in the assay with HOP-18 was 0.14 µM (active); with NCI-H522, 0.445 µM (active); with SF-268, 0.528 µM (active).
For `O=C(O)c1ccc([N+](=O)[O-])c2c(=O)c3ccccc3[nH]c12`, the GI50 with A549, in the assay with SNB-78, in the assay on MOLT-4, with DMS-114, in the assay on KM-20L2 and in the assay with DLD-1 was > 100 µM (inactive) each time. The GI50 in the assay with U-251, in the assay on SN12C, in the assay with UACC-62, in the assay with DMS-273, in the assay with HL-60 and in the assay on HOP-18 was > 100 µM (inactive) each time. For the same molecule, the GI50 in the assay on NCI-H522, with SR and in the assay on SF-268 was > 100 µM (inactive) in each case.
With `O=C(Nc1ccc(C2=NCCN2)cc1)c1cncc(C(=O)Nc2ccc(C3=NCCN3)cc2)c1`, the GI50 in the assay on A549, with SNB-78, with MOLT-4, with DMS-114, in the assay on KM-20L2 and with DLD-1 was > 100 µM (inactive) throughout. Moreover, the GI50 in the assay with U-251 was > 100 µM (inactive); in the assay on SN12C, > 100 µM (inactive); in the assay on UACC-62, > 100 µM (inactive); with DMS-273, > 100 µM (inactive); in the assay with NCI-H226 it was > 94.6 µM (inactive); in the assay on HL-60, > 100 µM (inactive). The GI50 in the assay with HOP-18 is > 100 µM (inactive); with NCI-H522, > 100 µM (inactive); in the assay with SF-268 it was > 31.6 µM (inactive).
Consider `Cn1c2ccccc2c(=O)c2c(O)cc3c(c21)C=CC(C)(C)O3` [NORACRONYCINE], for which the GI50 in the assay on A549 was > 25 µM (inactive); with SNB-78 it was > 25 µM (inactive); with MOLT-4 it was 6.28 µM (inactive); in the assay on DMS-114 it was > 25 µM (inactive); with KM-20L2 it was > 10.2 µM (inactive); with DLD-1, 19.4 µM (inactive). Also, the GI50 with U-251 is > 25 µM (inactive); in the assay with SN12C, > 25 µM (inactive); in the assay on UACC-62, > 25 µM (inactive); with DMS-273, > 25 µM (inactive); in the assay with NCI-H226, > 25 µM (inactive); in the assay with HL-60, > 11.1 µM (inactive). Besides, the GI50 in the assay with HOP-18 is 13.7 µM (inactive); in the assay with NCI-H522, > 25 µM (inactive); in the assay with SF-268, > 25 µM (inactive).
Regarding `COc1cc(C(C)c2cc3c(cc2OCCO)OCO3)cc(OC)c1OC` (centres undefined), the GI50 was 2.32 µM (inactive) in the assay with A549; 12.2 µM (inactive) with SNB-78; 0.935 µM (active) in the assay with MOLT-4; 0.562 µM (active) in the assay on DMS-114; 1.43 µM (inactive) in the assay on KM-20L2; 1.71 µM (inactive) in the assay on DLD-1. For the same molecule, the GI50 in the assay on U-251 was 2.48 µM (inactive); in the assay with SN12C, 5.82 µM (inactive); in the assay with UACC-62 it was 0.601 µM (active); with DMS-273, 0.413 µM (active); in the assay on NCI-H226 it was 2.86 µM (inactive); with HL-60, 0.313 µM (active). For the same molecule, the GI50 in the assay on HOP-18 is > 100 µM (inactive); in the assay with NCI-H522 it was 0.547 µM (active); with SR it was 0.299 µM (active); with SF-268, 3.9 µM (inactive).
